Laboratory results: patent US20140107170A1, “COMPOSITION COMPRISING ANGIOTENSIN II RECEPTOR ANTAGONIST AND ANTIOXIDANT FOR MAINTAINING AND/OR IMPROVING SKIN PROPERTIES” (priority 2011, published 2014)

System: Dermal fibroblast cells
Assay: Dermal fibroblast survival under oxidative stress (H2O2), MTS viability test, Example 3
Format: cell-based
Settings: preincubation till the next day, H2O2 (1 mmol) 15 minutes, MTS after 24 hours, valsartan 1.0 μmol, vitamin A 1 μmol, vitamin C 100 μmol, vitamin E 10 μmol
Procedure: Dermal fibroblast cells were grown in Advanced MEM supplemented with antibiotics (penicillin-streptomycin), 5% fetal bovine serum and L-glutamine (2 mmol/l) at 37° C. in a CO2 incubator (5% CO2, 95% air, 95% relative humidity. Cells were detached with Tryple™select. For experiments the cells were seeded in 96-well microtitre plates at a density 5×10^3 cells/well (5×10^4 cells/ml). Two hours after seeding, when the cells attached to the surface, the medium was replaced with the medium supplemented with vitamins (ACE), valsartan or their combination. The cells were incubated till the next day and then treated with H2O2 (1 mmol) for 15 minutes. After the treatment with H2O2 the cells were washed three times with PBS and than incubated in medium for 24 hours. Then the MTS viability test was performed.

## CCCCC(=O)N(Cc1ccc(-c2ccccc2-c2nnn[nH]2)cc1)[C@H](C(=O)O)C(C)C [Valsartan, valsartan]
  % of survival after treatment with H2O2: 79%
Listed as valsartan
  % of survival after treatment with H2O2: 79%
